Reference: patent US20150111737A1, “SYNERGISTIC PESTICIDAL COMPOSITIONS AND RELATED METHODS” (Dow AgroSciences LLC, priority 2013, published 2015)

Test system: diamondback moth, Plutella xylostella
Test: Cabbage leaf bioassay (track sprayer) against second instar diamondback moth; synergy judged by Colby's equation
Type: in vivo
Settings: single active, dose rate 0.0025 weight %, 400 L/Ha spray
From the text: The method described in Colby S. R., “Calculating Synergistic and Antagonistic Responses of Herbicide Combinations,” Weeds, 1967, 15, 20-22 was used to determine an existence of synergic effect between the juvenile hormone mimicking compound and the pesticide (I), (II), or any agriculturally acceptable salt thereof in the formulated pesticidal composition. In this method, the percent insect control of the formulated pesticidal composition as observed in the study was compared to the “expected” percent control (E) as calculated by equation (1) (hereinafter “Colby's equation”) below: […]
Bioassays were performed for different active compounds. Cabbage plants with about two to three new-growth-true leaf stage were treated with different active compounds using a track sprayer application at 400 L/Ha spray volume. Three second instar diamondback moths, Plutella xylostella, were infested onto each leaf disc. The percent control of the pesticidal composition against diamondback moth, Plutella xylostella, was determined as the “Observed” action, and compared to those obtained by using about 0.0025 weight % of Compound II, and using about 0.000391 weight % of pyriproxyfen alone. The “Colby's Expected Action” was calculated using Colby's equation as discussed previously. […]
The percent control may be determined some time after treatment.

Q: CCN(C(=O)CCSCCC(F)(F)F)c1cn(-c2cccnc2)nc1Cl [Compound I, N-(3-chloro-1-(pyridin-3-yl)-1H-pyrazol-4-yl)-N-ethyl-3-((3,3,3-trifluoropropyl)thio)propanamide] was tested. Which “% Control Three Days After Treatment” value did it give?
A: 0%

Q: For CCN(C(=O)CC[S+]([O-])CCC(F)(F)F)c1cn(-c2cccnc2)nc1Cl (centres unmarked) [Compound II, N-(3-chloro-1-(pyridin-3-yl)-1H-pyrazol-4-yl)-N-ethyl-3-((3,3,3-trifluoropropyl)sulfinyl)propanamide], which “% Control Three Days After Treatment” value is on record?
A: 0%
